Results reported in patent publication EP0644191A1, “PYRIDINE COMPOUND AND MEDICINAL USE THEREOF” (YOSHITOMI PHARMACEUTICAL INDUSTRIES, LTD., priority 1992, dated 1993).
Values after ≈ are worked out from the molar mass of the structure shown.

How the values were obtained:
Helicobacter pylori = assay: Antibacterial activity (in vitro), agar plate dilution method, clinical isolates (18 strains); format: cell-based; conditions: 18 clinical isolates, 37°C, 8% CO₂, 3-4 days
Procedure: Antibacterial activity (in vitro) of the compound of the present invention against Helicobacter pylori was determined by the following agar plate dilution method. […] The cultures were diluted with Brucella broth to give a concentration of approximately 10⁶ cell/ml. The diluted bacterial solution was spot inoculated with a microplanter on an agar plate containing 2-fold dilution concentration series of the test compound. The cells were incubated at 37°C under 8% CO₂ for 3-4 days. The minimum inhibitory concentration (MIC) in respective strains was determined, based on which MIC₅₀ and MIC₉₀ were calculated.

[1] = test system: Escherichia coli NIHJ JC-2; assay: Antibacterial spectrum, agar plate dilution MIC; format: cell-based; conditions: NIHJJC2, 37°C, 8% CO₂, 3-4 days
Procedure: (§1) The test bacterium precultured in Muller-Hinton liquid medium was diluted with the same medium to give a bacterial solution of about 10⁶ cell/ml for inoculation. The dilute bacterial solution was spot inoculated with a microplanter on an agar plate containing 2-fold dilution concentration series of the test compound and the cells were incubated at 37°C under 8% CO₂ for 3-4 days. The minimum inhibitory concentration (MIC) in respective strains was determined, based on which MIC was calculated.

[2] = test system: Pseudomonas aeruginosa IFO 12582; assay: Antibacterial spectrum, agar plate dilution MIC; format: cell-based; conditions: IFO12582, 37°C, 8% CO₂, 3-4 days, read-out: MIC P. aeruginosa
Procedure: as §1

[3] = test system: Staphylococcus aureus FDA 209P; assay: Antibacterial spectrum, agar plate dilution MIC; format: cell-based; conditions: FDA209P, 37°C, 8% CO₂, 3-4 days, read-out: MIC S. aureus
Procedure: as §1

[4] = test system: Candida albicans IFO 1060; assay: Antifungal spectrum, agar plate dilution MIC; format: cell-based; conditions: IFO1060, 37°C, 8% CO₂, 3-4 days
[5] = Aspirin/hydrochloric acid-induced gastric ulcer in rats; format: in vivo; conditions: for Ulcer index (mean±standard deviation): 30 min before aspirin 100 mg/kg, stomach removed 4 hours later, control 5.0±0.51; for Change (%): change of ulcer index versus control
Procedure: Male rats weighing about 200 g (16 rats per group) were fasted for 20 hours and the test solution was orally administered to the rats. Thirty minutes later, aspirin (100 mg/kg) containing 0.3N hydrochloric acid was orally administered.
Four hours later, the stomach was removed and the area which developed ulcer was examined. A square root of the total ulcer area was taken as an ulcer index.

[6] = Acute toxicity in mice, observed for 5 days; format: in vivo
Excerpt: As a result, no death case was found.

| MIC50 (Helicobacter pylori) [µg/mL] | MIC90 (Helicobacter pylori) [µg/mL] | MIC [1] [µg/mL] | MIC [2] [µg/mL] | MIC [3] [µg/mL] | MIC [4] [µg/mL] | SMILES | Ulcer index (mean±standard deviation) ([5]; 10 mg/kg p.o.) | Change (%) ([5]; 10 mg/kg p.o.) | Ulcer index (mean±standard deviation) ([5]; 30 mg/kg p.o.) | Change (%) ([5]; 30 mg/kg p.o.) | death ([6]; intraperitoneally 300 mg/kg) | death ([6]; orally 1000 mg/kg) |
| --- | --- | --- | --- | --- | --- | --- | --- | --- | --- | --- | --- | --- |
| ≤ 0.006 | 0.012 (≈ 0.03 µM) | > 100 | > 100 | > 100 | > 100 | Cc1c(SCCN2CCOCC2)ccnc1CSc1nc2ccccc2[nH]1 [Example 1, 2-(3-methyl-4-(2-morpholinoethylthio)-2-pyridyl)methylthio-1H-benzimidazole] | 3.1±0.33 | -37 | 2.3±0.49 | -55 | – | – |
| 0.025 (≈ 0.0575 µM) | 0.05 (≈ 0.115 µM) | > 100 | > 100 | > 100 | > 100 | Cc1c(SCCN(C)Cc2ccccc2)ccnc1CSc1nc2ccccc2[nH]1 [Example 3] | – | – | – | – | – | – |
| 0.012 (≈ 0.026 µM) | 0.025 (≈ 0.0543 µM) | > 100 | > 100 | > 100 | > 100 | Cc1c(SC2CCN(Cc3ccccc3)CC2)ccnc1CSc1nc2ccccc2[nH]1 [Example 7, 2-(4-(1-benzyl-4-piperidyl)thio-3-methyl-2-pyridyl)methylthio-1H-benzimidazole] | – | – | – | – | – | – |
| 0.012 (≈ 0.0268 µM) | 0.025 (≈ 0.0558 µM) | – | – | – | – | Cc1c(SCCN2CCc3ccccc3C2)ccnc1CSc1nc2ncccc2[nH]1 [Example 12, 2-((3-methyl-4-(2-(1,2,3,4-tetrahydroisoquinolin-2-yl)ethylthio)-2-pyridyl)methylthio)imidazo[5,4-b]pyridine] | – | – | – | – | – | – |
| 0.025 (≈ 0.06 µM) | 0.025 (≈ 0.06 µM) | > 100 | > 100 | > 100 | > 100 | Cc1c(SCC[N+]2([O-])CCOCC2)ccnc1CSc1nc2ccccc2[nH]1 [Example 28, 4-(2-((2-(1H-benzimidazol-2-yl)thiomethyl-3-methyl-4-pyridyl)thio)ethyl)morpholine N-oxide] | – | – | – | – | – | – |
| 0.05 (≈ 0.116 µM) | 0.1 (≈ 0.232 µM) | – | – | – | – | Cc1c(OCCN2CCc3ccccc3C2)ccnc1CSc1nc2ccccc2[nH]1 [Ref. Compound 1, 2-(3-methyl-4-(2-(1,2,3,4-tetrahydroisoquinolin-2-yl)ethoxy)-2-pyridyl)methylthio-1H-benzimidazole, reference compound] | – | – | – | – | – | – |
| 0.1 (≈ 0.23 µM) | 0.2 (≈ 0.46 µM) | – | – | – | – | Cc1c(OCCN(C)Cc2ccccc2)ccnc1C[S+]([O-])c1nc2ccccc2[nH]1 (centres unmarked) [Ref. Compound 2, 2-(3-methyl-4-(2-(N-benzyl-N-methylamino)ethoxy)-2-pyridyl)methylsulfinyl-1H-benzimidazole, reference compound] | – | – | – | – | – | – |
| 0.05 (≈ 0.112 µM) | 0.1 (≈ 0.224 µM) | – | – | – | – | Cc1c(OCCN2CCc3ccccc3C2)ccnc1C[S+]([O-])c1nc2ccccc2[nH]1 (centres unmarked) [Ref. Compound 3, 2-(3-methyl-4-(2-(1,2,3,4-tetrahydroisoquinolin-2-yl)ethoxy)-2-pyridyl)methylsulfinyl-1H-benzimidazole, reference compound] | – | – | – | – | – | – |

| SMILES | MIC50 (Helicobacter pylori) [µg/mL] | MIC90 (Helicobacter pylori) [µg/mL] | MIC [1] [µg/mL] | MIC [2] [µg/mL] | MIC [3] [µg/mL] | MIC [4] [µg/mL] | Ulcer index (mean±standard deviation) ([5]; 10 mg/kg p.o.) | Change (%) ([5]; 10 mg/kg p.o.) | Ulcer index (mean±standard deviation) ([5]; 30 mg/kg p.o.) | Change (%) ([5]; 30 mg/kg p.o.) | death ([6]; intraperitoneally 300 mg/kg) | death ([6]; orally 1000 mg/kg) |
| --- | --- | --- | --- | --- | --- | --- | --- | --- | --- | --- | --- | --- |
| Cc1c(SCCN2CCc3ccccc3C2)ccnc1CSc1nc2ccccc2[nH]1 [Example 2, 2-(3-methyl-4-(2-(1,2,3,4-tetrahydroisoquinolin-2-yl)ethylthio)-2-pyridyl)methylthio-1H-benzimidazole] | ≤ 0.006 | ≤ 0.006 | > 100 | > 100 | > 100 | > 100 | – | – | – | – | no death case | no death case |
